Measured values taken from US20060088886A1, “Topiramate analogs” (priority 2004, published 2006).

Legend:
[1] = tested on: sheep polyclonal antibodies that bind with topiramate prepared from immunogen (18); experiment: QMS homogeneous particle-enhanced immunoturbidimetric assay; type: binding; settings: Polyclonal antibody R1, Topiramate antigen (19) coated Latex
Description: An immunoturbidimetric or QMS® assay, which is a homogeneous particle-enhanced immunoturbidimetric experiment, is performed to test the polyclonal antibodies prepared as in Example 21. […] Additionally, suitable specimens can be prepared from serum and plasma. Serum can be collected by standard venipuncture techniques and placed into glass or plastic tubes with or without gel barriers. […] In the instance the specimen is centrifuged before a complete clot forms, the presence of fibrin may cause erroneous results. Accordingly, the serum can be separated from red blood cells as soon after collection as possible. Plasma can also be used with acceptable anticoagulants, such as lithium heparin, sodium heparin, potassium EDTA, and a heparin gel plasma separator. The plasma can be collected by standard venipuncture techniques and placed into glass or plastic tubes. Also, centrifugation is used to ensure the adequate removal of platelets. The plasma can be separated from red blood cells as soon as possible after collection. The specimens that contain particulate matter or red blood cells may give inconsistent results, but can be centrifuged before testing at a recommended 8,000 to 10,000 RCF×10 minutes to produce a suitable specimen. The assay procedure is initiated by diluting the specimen because the specimens with topiramate can be used to generate results that exceed the highest calibrator value. As such, the specimens may be diluted manually or by using an automated onboard dilution protocol. The assay is based on competition for topiramate-specific antibody binding sites between drug in the sample and drug coated onto a microparticle of topiramate-coated microparticle reagent is rapidly agglutinated in the presence of the anti-topiramate antibody reagent and in the absence of any competing drug in the sample. The rate of absorbance change is measured photometrically, and is directly proportional to the rate of agglutination of the particles. […] A concentration-dependent classic agglutination inhibition curve can be obtained, with maximum rate of agglutination at the lowest topiramate concentration (at zero μg/ml) and the lowest agglutination rate at the highest topiramate concentration (32 μg/ml). The QMS® topiramate assay is initiated after the being calibrated using a full calibration (6-point) procedure. The QMS® is performed as directed in operation manuals in accordance with the average skill of one in the art.

[2] = tested on: anti-topiramate antibodies prepared with immunogen (17); experiment: ELISA binding inhibition study (avidity), free topiramate vs coated antigens; parameters: species or system Rabbit; settings: for Abs Antigen 16 / Abs Antigen 19 / Abs Antigen 20: 405 nm
Description: ELISA plates for use in an ELISA assay are prepared in order to study the polyclonal antibody prepared as described in Example 21. As such, various topiramate antigens (16), (19), and (20) are coated on different ELISA plates before being subjected to the anti-topiramate antibody and competing free topiramate. More particularly, the topiramate antigens are diluted in coating buffer, and then added to the wells of ELISA plate. After the ELISA plate is inculcated for 60 min at 37° C., the solvent in the coating buffer is decanted and a blocking buffer is added to the plate. The plate is incubated again for 60 min at 37° C., and the solvent in the blocking buffer is decanted from the plate. The ELISA plate is then stored with the blocking agent in the wells at 2-8° C. for up to 1 week. The avidity of the anti-topiramate antibodies prepared with immunogen (17) for topirainate analogs are determined by a binding inhibition study. As such, samples are prepared in 1 mL of PBS at pH 7.4 with 0.1% BSA. A composition having 30% Bmax titer or 50% Bmax titer is used to divide the obtained titer value into approximately half the titer value. Using 30% Bmax, an antibody titer of 1:10000 is diluted to 1:5000 during the sample preparation stage. About 50 μL of topiramate at different concentrations or calibrator values, (0, 2, 4, 8, 16, 32 μg/ml) are then applied to a plate as prepared in accordance with Example 22. About 50 μL of the diluted antibody is dispensed into the plate, and the compositions in the plate are mixed for 1 min on a horizontal plate shaker. The plate is characterized by a first row not containing topiramate or anti-topiramate antibody, wherein the first row is used as a negative control. A second row not containing topiramate is used as the positive control. The plate is incubated for 60 min, and washed three times with 250 μL of PBS at pH 7.4 with 0.05% tween. About 125 μL of a diluted second antibody conjugate such as antigens (16), (19), or (20), in PBS at pH 7.4 is added to each well of the plate. Titer is determined experimentally by the plate being incubated for 60 min at 37° C. and washed 3 times with 250 μL PBS, pH 7.4 with 0.05% tween. Subsequently, about 125 μL of ABTS substrate is added to each well of the plate and incubated for 20 min.

[3] = Rabbit No. 5481, topiramate 2 μg/ml
[4] = Rabbit No. 5481, topiramate 4 μg/ml
[5] = Rabbit No. 5481, topiramate 8 μg/ml
[6] = Rabbit No. 5481, topiramate 16 μg/ml
[7] = Rabbit No. 5481, topiramate 32 μg/ml
[8] = Rabbit No. 5492, topiramate 2 μg/ml
[9] = Rabbit No. 5492, topiramate 4 μg/ml
[10] = Rabbit No. 5492, topiramate 8 μg/ml
[11] = Rabbit No. 5492, topiramate 16 μg/ml
[12] = Rabbit No. 5492, topiramate 32 μg/ml

CC1(C)O[C@@H]2[C@@H](CO[C@@]3(COS(N)(=O)=O)OC(C)(C)O[C@@H]23)O1 [Topiramate, 2,3:4,5-di-O-isopropylidene-beta-D-fructopyranose sulfamate]
Rate (Delta Absorbance) ([1]; topiramate 2 μg/ml sample): 159 | Rate (Delta Absorbance) ([1]; topiramate 4 μg/ml sample): 122 | Rate (Delta Absorbance) ([1]; topiramate 8 μg/ml sample): 60 | Rate (Delta Absorbance) ([1]; topiramate 16 μg/ml sample): 16 | Rate (Delta Absorbance) ([1]; topiramate 32 μg/ml sample): 4 | B/Bo Antigen 16 [2, 3]: 0.38 | B/Bo Antigen 19 [2, 3]: 0.40 | B/Bo Antigen 20 [2, 3]: 0.53 | Abs Antigen 16 [2, 3]: 0.29 | Abs Antigen 19 [2, 3]: 0.33 | Abs Antigen 20 [2, 3]: 0.32 | B/Bo Antigen 16 [2, 4]: 0.34 | B/Bo Antigen 19 [2, 4]: 0.30 | B/Bo Antigen 20 [2, 4]: 0.50 | Abs Antigen 16 [2, 4]: 0.26 | Abs Antigen 19 [2, 4]: 0.25 | Abs Antigen 20 [2, 4]: 0.30 | B/Bo Antigen 16 [2, 5]: 0.24 | B/Bo Antigen 19 [2, 5]: 0.24 | B/Bo Antigen 20 [2, 5]: 0.42 | Abs Antigen 16 [2, 5]: 0.18 | Abs Antigen 19 [2, 5]: 0.20 | Abs Antigen 20 [2, 5]: 0.25 | B/Bo Antigen 16 [2, 6]: 0.20 | B/Bo Antigen 19 [2, 6]: 0.22 | B/Bo Antigen 20 [2, 6]: 0.37 | Abs Antigen 16 [2, 6]: 0.15 | Abs Antigen 19 [2, 6]: 0.18 | Abs Antigen 20 [2, 6]: 0.22 | B/Bo Antigen 16 [2, 7]: 0.14 | B/Bo Antigen 19 [2, 7]: 0.18 | B/Bo Antigen 20 [2, 7]: 0.30 | Abs Antigen 16 [2, 7]: 0.11 | Abs Antigen 19 [2, 7]: 0.15 | Abs Antigen 20 [2, 7]: 0.18 | B/Bo Antigen 16 [2, 8]: 0.56 | B/Bo Antigen 19 [2, 8]: 0.38 | B/Bo Antigen 20 [2, 8]: 0.64 | Abs Antigen 16 [2, 8]: 0.25 | Abs Antigen 19 [2, 8]: 0.31 | Abs Antigen 20 [2, 8]: 0.45 | B/Bo Antigen 16 [2, 9]: 0.44 | B/Bo Antigen 19 [2, 9]: 0.28 | B/Bo Antigen 20 [2, 9]: 0.59 | Abs Antigen 16 [2, 9]: 0.20 | Abs Antigen 19 [2, 9]: 0.23 | Abs Antigen 20 [2, 9]: 0.41 | B/Bo Antigen 16 [2, 10]: 0.33 | B/Bo Antigen 19 [2, 10]: 0.23 | B/Bo Antigen 20 [2, 10]: 0.54 | Abs Antigen 16 [2, 10]: 0.15 | Abs Antigen 19 [2, 10]: 0.19 | Abs Antigen 20 [2, 10]: 0.38 | B/Bo Antigen 16 [2, 11]: 0.29 | B/Bo Antigen 19 [2, 11]: 0.20 | B/Bo Antigen 20 [2, 11]: 0.54 | Abs Antigen 16 [2, 11]: 0.13 | Abs Antigen 19 [2, 11]: 0.17 | Abs Antigen 20 [2, 11]: 0.38 | B/Bo Antigen 16 [2, 12]: 0.02 | B/Bo Antigen 19 [2, 12]: 0.18 | B/Bo Antigen 20 [2, 12]: 0.40 | Abs Antigen 16 [2, 12]: 0.01 | Abs Antigen 19 [2, 12]: 0.15 | Abs Antigen 20 [2, 12]: 0.28
